The record followed here is patent publication US10781184B2, “Substituted benzazinones as antibacterial compounds” (GlaxoSmithKline Intellectual Property Development Limited, priority 2015, dated 2020).

One assay concerns the target T1, Untagged E. coli LpxC (Escherichia coli, UniProt P0A725).
T1 construct: Untagged E. Coli LpxC 1-300 was expressed in E. Coli; made in house; host or cells: E. coli
T1 sequence (P0A725 1-300): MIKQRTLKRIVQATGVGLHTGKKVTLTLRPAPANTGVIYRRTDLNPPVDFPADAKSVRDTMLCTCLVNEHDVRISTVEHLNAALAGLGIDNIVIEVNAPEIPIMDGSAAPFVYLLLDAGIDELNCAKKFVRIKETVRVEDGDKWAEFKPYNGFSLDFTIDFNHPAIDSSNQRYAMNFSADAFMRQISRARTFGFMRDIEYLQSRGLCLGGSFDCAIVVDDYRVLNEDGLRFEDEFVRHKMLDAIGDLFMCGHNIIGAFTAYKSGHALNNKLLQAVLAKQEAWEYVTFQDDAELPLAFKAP
Put plainly: E. coli Enzyme Assay (LpxC deacetylase, RapidFire MS). The assay is classed as biochemical. The settings on record: read-out: E. coli plC50 (converted). The source says: Untagged E. Coli LpxC 1-300 was expressed in E. Coli and purified with NiNTA Agarose, Superdex 200 and Mono Q columns. UDP-3-O—(R-3-hydroxymyristoyl)-N-Acetylglucosamine Substrate was obtained through a custom synthesis from Alberta Innovates Technology Futures. Method Untagged E. coli LpxC is a deacetylase, which can remove an acetyl-group from UDP-3-O—(R-3-hydroxymyristoyl)-N-Acetylglucosamine (m/z 832.1-385) to result in a product (m/z 790.3→385) that is 42 Daltons less than the original acetylated substrate. Direct detection of the deacetylated product and acetylated substrate was accomplished through an Agilent RapidFire v. 3.4/Sciex 4000 Q-Trap RF-MS instrument. […] Following a 30 minute preincubation, 20 μL of 2× substrate [2 μM final concentration; 39.984 mL buffer+16 μL of UDP-3-O—(R-3-hydroxymyristoyl)-N-Acetylglucosamine (at 10 mM Stock)] was added and incubated for 25 minutes. The reaction was quenched by the addition of 10 μL of 1N HCl. The plate was loaded onto the Agilent RapidFire v. 3.4/Sciex 4000 Q-Trap RF-MS instrument for analysis [C4 SPE cartridge, 2 mM ammonium acetate in 100 v/v water as the aqueous eluent and 5 mM ammonium acetate in 25% v/v/25% v/v/50% v/v acetonitrile/acetone/water as the organic eluent]. For dose response experiments % conversion were determined from the substrate and product extracted ion chromatogram (XIC) areas and normalized to the assay high and low controls. Normalized data were fit by ActivityBase XE using the equation y=a+(b−a)/(1+(10^x/10^c)^d), where a is the minimum % activity, b is the maximum % activity, c is the pIC50, and d is the Hill slope. ^1Langsdorf, Erik F. et al. Screening for Antibacterial Inhibitors of the UDP-3-O—(R-3-Hydroxymyristoyl)-N-Acetylglucosamine Deacetylase (LpxC) Using a High-Throughput Mass Spectroscopy Assay. See, J. Biomol. Screen. 2010, 15, 52-61. Minimum Inhibitory Concentration Assay

The test system of a further assay is E. coli 7623. Nature of the assay: Minimum Inhibitory Concentration Assay (broth microdilution, CLSI). The assay is classed as cell-based. The settings on record: Escherichia coli; strain 7623, broth microdilution; read-out: E. coli 7623 MIC. In a few lines: (§1)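 CLSI broth microdilution for aerobic bacteria; compounds serially diluted in the recommended broth over a final range of 0.125–128 mcg/mL, final DMSO below 1%. MIC read as the lowest concentration inhibiting visible growth.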
In general terms: Broth dilution looks for growth in wells or tubes with falling amounts of substance.

The next assay concerns K. pneumoniae 1161486. Described as above. It is filed as cell-based. The settings on record: Klebsiella pneumoniae; strain 1161486, broth microdilution; read-out: K. pneumoniae 1161486 MIC. In short, it runs like this: as §1
The next assay concerns P. aeruginosa PA01. Described as above. It is filed as cell-based. The settings on record: Pseudomonas aeruginosa; strain PA01, broth microdilution; read-out: P. aeruginosa PA01 MIC. In a few lines: as §1
The target of assay [1] is T2, Untagged Pseudomonas LpxC (Pseudomonas aeruginosa, UniProt P47205).
T2 construct: made in house; host or cells: E. coli
T2 sequence (P47205 1-303): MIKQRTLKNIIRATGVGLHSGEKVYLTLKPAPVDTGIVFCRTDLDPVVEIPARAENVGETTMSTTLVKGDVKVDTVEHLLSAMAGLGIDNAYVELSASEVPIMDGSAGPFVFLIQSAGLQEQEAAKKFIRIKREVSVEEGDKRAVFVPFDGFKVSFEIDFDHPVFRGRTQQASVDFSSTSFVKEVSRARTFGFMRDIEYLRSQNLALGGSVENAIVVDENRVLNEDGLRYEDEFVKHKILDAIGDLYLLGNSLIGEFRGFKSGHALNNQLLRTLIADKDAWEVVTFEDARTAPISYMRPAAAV
Put plainly: P. aeruginosa Enzymatic Assay (LpxC deacetylase, RapidFire MS). The assay is classed as biochemical. The source says:
P. aeruginosa Enzymatic Assay
Untagged Pseudomonas LpxC was expressed in E. coli from Psuedomonas aeruginosa PAO1 and purified from Q-Sepharose 1 and Q-Sepharose 2 columns. UDP-3-O—(R-3-hydroxymyristoyl)-N-Acetylglucosamine Substrate was obtained through a custom synthesis from Alberta Innovates Technology Futures.
Untagged Pseudomonas LpxC is a deacetylase, which can remove an acetyl-group from UDP-3-O—(R-3-hydroxymyristoyl)-N-Acetylglucosamine to result in a product that is 42 Daltons less than the original acetylated substrate. Direct detection of the deactylated product and acetylated substrate is accomplished through an Agilent RapidFire v. 3.4/Sciex 4000 Q-Trap RF-MS instrument.
Following a 30 minute incubation, 20 μL of 2× substrate [7.680 buffer+5 uL of UDP-3-O—(R-3-hydroxymyristoyl)-N-Acetylglucosamine (at 10 mM Stock)] was added and incubated for 25 minutes. 10 uL of 1N HCl was added to quench the reaction. The plate was loaded onto the Agilent RapidFire v. 3.4/Sciex 4000 Q-Trap RF-MS instrument for analysis, using a C4 SPE cartridge and 2 mM ammonium acetate in 100 v/v water as the aqueous eluent and 5 mM ammonium acetate in […] as the organic eluent. For dose response experiments, % conversion were determined from the substrate and product analytes and normalized data were fit by ABASE/XC50 using the equation y=a+(b−a)/(1+(10^x/10^c)^d), where a is the minimum % activity, b is the maximum % activity, c is the pIC50, and d is the Hill slope. ^1Langsdorf, Erik F. et al. Screening for Antibacterial Inhibitors of the UDP-3-O—(R-3-Hydroxymyristoyl)-N-Acetylglucosamine Deacetylase (LpxC) Using a High-Throughput Mass

Molecules are shown by their SMILES. ≈ marks a conversion by molar mass, not a printed value.

Broadly, the MIC is the lowest concentration found to suppress growth. Take `COc1ccc(-c2ccc3c(=O)n(CC[C@](C)(C(=O)NO)S(C)(=O)=O)cnc3c2)cc1` [Example 3, (R)—N-hydroxy-4-(7-(4-methoxyphenyl)-4-oxoquinazolin-3(4H)-yl)-2-methyl-2-(methylsulfonyl)butanamide]: the IC50 on Untagged E. coli LpxC was 1 nM. Moreover, the figures for the MIC in the assay on E. coli 7623, in the assay with K. pneumoniae 1161486 and in the assay with P. aeruginosa PA01 were 0.06 µg/mL (≈ 0.135 µM), 0.5 µg/mL (≈ 1.12 µM) and 2 µg/mL (≈ 4.49 µM), respectively.

On to `Cc1ccc(-c2cc(F)c3c(=O)n(CC[C@](C)(C(=O)NO)S(C)(=O)=O)cnc3c2)cc1` [Example 17, (2R)-4-[5-fluoro-7-(4-methylphenyl)-4-oxo-3,4-dihydroquinazolin-3-yl]-N-hydroxy-2-methanesulfonyl-2-methylbutanamide], for which the values for the minimal inhibitory concentration (MIC) with E. coli 7623, with K. pneumoniae 1161486 and in the assay with P. aeruginosa PA01 were 0.25 µg/mL (≈ 0.559 µM), 1 µg/mL (≈ 2.23 µM) and 16 µg/mL (≈ 35.8 µM), respectively. The compound also had an IC50 in assay [1] of 1 nM.

`C[C@@](CCn1cnc2cc(-c3ccc(CCN4CCOCC4)cc3)ccc2c1=O)(C(=O)NO)S(C)(=O)=O` [Example 42, (2R)—N-hydroxy-2-methanesulfonyl-2-methyl-4-(7-{4-[2-(morpholin-4-yl)ethyl]phenyl}-4-oxo-3,4-dihydroquinazolin-3-yl)butanamide]: the IC50 at Untagged E. coli LpxC is 1 nM. Besides, the values for the minimal inhibitory concentration (MIC) in the assay on E. coli 7623, with K. pneumoniae 1161486 and in the assay with P. aeruginosa PA01 were 0.25 µg/mL (≈ 0.473 µM), 0.5 µg/mL (≈ 0.946 µM) and 2 µg/mL (≈ 3.78 µM), respectively.

With `C[C@@](CCn1ccc2cc(-c3ccc(CN4CCOCC4)cc3)ccc2c1=O)(C(=O)NO)S(C)(=O)=O` [Example 64, (2R)—N-hydroxy-2-methanesulfonyl-2-methyl-4-(6-{4-[(morpholin-4-yl)methyl]phenyl}-1-oxo-1,2-dihydroisoquinolin-2-yl)butanamide], the IC50 at Untagged E. coli LpxC is 1 nM. Moreover, the minimal inhibitory concentration (MIC) was less than 0.03 µg/mL in the assay on E. coli 7623, 0.25 µg/mL (≈ 0.487 µM) in the assay with K. pneumoniae 1161486 and 0.5 µg/mL (≈ 0.973 µM) with P. aeruginosa PA01.

Consider `COC(C)(C)CNCc1ccc(-c2ccc3c(=O)n(CC[C@](C)(C(=O)NO)S(C)(=O)=O)ccc3c2)c(F)c1` [Example 68, (2R)-4-[6-(2-fluoro-4-{[(2-methoxy-2-methylpropyl)amino]methyl}phenyl)-1-oxo-1,2-dihydroisoquinolin-2-yl]-N-hydroxy-2-methanesulfonyl-2-methylbutanamide], for which the IC50 on Untagged E. coli LpxC is 1 nM. For the same compound, the figures for the MIC in the assay on E. coli 7623, in the assay with K. pneumoniae 1161486 and in the assay with P. aeruginosa PA01 were 0.125 µg/mL (≈ 0.228 µM), 0.5 µg/mL (≈ 0.913 µM) and 2 µg/mL (≈ 3.65 µM), respectively.

On to `CN(C)Cc1ccc(-c2ccc3c(=O)n(CC[C@](C)(C(=O)NO)S(C)(=O)=O)ccc3c2)c(F)c1F` [Example 69, (2R)-4-(6-{4-[(dimethylamino)methyl]-2,3-difluorophenyl}-1-oxo-1,2-dihydroisoquinolin-2-yl)-N-hydroxy-2-methanesulfonyl-2-methylbutanamide], for which, on Untagged E. coli LpxC, the IC50 was 1 nM. Further, the MIC in the assay with E. coli 7623 amounted to 0.125 µg/mL (≈ 0.246 µM); with K. pneumoniae 1161486, 1 µg/mL (≈ 1.97 µM); in the assay on P. aeruginosa PA01 it was 1 µg/mL (≈ 1.97 µM).

For the compound `CCOCCNCc1ccc(-c2ccc3c(=O)n(CC[C@](C)(C(=O)NO)S(C)(=O)=O)ccc3c2)c(F)c1` [Example 72, (2R)-4-[6-(4-{[(2-ethoxyethyl)amino]methyl}-2-fluorophenyl)-1-oxo-1,2-dihydroisoquinolin-2-yl]-N-hydroxy-2-methanesulfonyl-2-methylbutanamide], on Untagged E. coli LpxC, the IC50 was 1 nM. The minimum inhibitory concentration (MIC) in the assay on E. coli 7623 was found to be 0.125 µg/mL (≈ 0.234 µM); in the assay with K. pneumoniae 1161486 it was 0.25 µg/mL (≈ 0.468 µM); in the assay with P. aeruginosa PA01, 1 µg/mL (≈ 1.87 µM).

Regarding `C[C@@](CCn1ccc2cc(-c3ccc(CNC4CC4)cc3)ccc2c1=O)(C(=O)NO)S(C)(=O)=O` [Example 75, (2R)-4-(6-{4-[(cyclopropylamino)methyl]phenyl}-1-oxo-1,2-dihydroisoquinolin-2-yl)-N-hydroxy-2-methanesulfonyl-2-methylbutanamide], the MIC in the assay with E. coli 7623 worked out at 0.06 µg/mL (≈ 0.124 µM); in the assay on K. pneumoniae 1161486 it was 0.063 µg/mL (≈ 0.13 µM); in the assay with P. aeruginosa PA01, 0.25 µg/mL (≈ 0.517 µM). In addition, the IC50 in assay [1] was 1 nM.

`C[C@@](CCN1CCc2cc(-c3ccccc3F)ccc2C1=O)(C(=O)NO)S(C)(=O)=O` [Example 91, (2R)-4-[6-(2-fluorophenyl)-1-oxo-1,2,3,4-tetrahydroisoquinolin-2-yl]-N-hydroxy-2-methanesulfonyl-2-methylbutanamide]: the minimal inhibitory concentration (MIC) with E. coli 7623 stood at 0.5 µg/mL (≈ 1.15 µM); in the assay on K. pneumoniae 1161486, 0.5 µg/mL (≈ 1.15 µM); in the assay with P. aeruginosa PA01 it was 4 µg/mL (≈ 9.21 µM). The compound further had an IC50 in assay [1] of 1 nM.
